Test results reported in the supplement of paper PMC11061612.

How the values were obtained:
Capivasertib = compound: C1CN(CCC1(C(=O)N[C@@H](CCO)C2=CC=C(C=C2)Cl)N)C3=NC=NC4=C3C=CN4 [Capivasertib]; details: max 10 µM
Procedure, shortened: (§1)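 In 1536-well plates, cancer cell lines in 7.5 μl DMEM/F12 or RPMI with 10% FBS spent 24 hours at 37°C and 5% CO2 and were then dosed for 72 hours with final DMSO typically 0.2%. Viability was read by CellTiter-Glo 2.0 luminescence and scaled between blank-well and DMSO-well means. The single-agent IC50 was fitted from dose responses using a logistic curve in a non-linear mixed effects model, and that logistic curve had two parameters.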

AZD1775 = compound: C=CCn1c(=O)c2cnc(Nc3ccc(N4CCN(C)CC4)cc3)nc2n1-c1cccc(C(C)(C)O)n1 [AZD1775]; details: max 3 µM
Procedure, shortened: as §1

Trametinib = compound: CC(=O)Nc1cccc(-n2c(=O)n(C3CC3)c(=O)c3c(Nc4ccc(I)cc4F)n(C)c(=O)c(C)c32)c1 [Trametinib]; details: max 1 µM
Procedure, shortened: as §1

Palbociclib = compound: CC(=O)c1c(C)c2cnc(Nc3ccc(N4CCNCC4)cn3)nc2n(C2CCCC2)c1=O [Palbociclib]; details: max 10 µM
Procedure, shortened: as §1

AZD1390 = compound: CC(C)n1c(=O)n(C)c2cnc3cc(F)c(-c4ccc(OCCCN5CCCCC5)nc4)cc3c21 [AZD1390]; details: max 0.3 µM
Procedure, shortened: as §1

Venetoclax = compound: CC1(C)CCC(CN2CCN(c3ccc(C(=O)NS(=O)(=O)c4ccc(NCC5CCOCC5)c([N+](=O)[O-])c4)c(Oc4cnc5[nH]ccc5c4)c3)CC2)=C(c2ccc(Cl)cc2)C1 [Venetoclax]; details: max 1 µM
Procedure, shortened: as §1

Dasatinib = compound: CC1=C(C(=CC=C1)Cl)NC(=O)C2=CN=C(S2)NC3=CC(=NC(=N3)C)N4CCN(CC4)CCO [Dasatinib]; details: max 2 µM
Procedure, shortened: as §1

SG3199 = compound: CC1=CN2[C@@H](C1)C=NC3=CC(=C(C=C3C2=O)OC)OCCCCCOC4=C(C=C5C(=C4)N=C[C@@H]6CC(=CN6C5=O)C)OC [SG3199]; details: max 0.001 µM
Procedure, shortened: as §1

AZD2811 = compound: CCN(CCO)CCCOc1ccc2c(Nc3cc(CC(=O)Nc4cccc(F)c4)[nH]n3)ncnc2c1 [AZD2811]; details: max 1 µM
Procedure, shortened: as §1

SN-38 = compound: CCc1c2c(nc3ccc(O)cc13)-c1cc3c(c(=O)n1C2)COC(=O)[C@]3(O)CC [SN-38]; details: max 0.3 µM
Procedure, shortened: as §1

AZD0156 = compound: CN(C)CCCOc1ccc(-c2ccc3ncc4c(c3c2)n(C2CCOCC2)c(=O)n4C)cn1 [AZD0156]; details: max 3 µM
Procedure, shortened: as §1

AZD4320 = compound: CN(CC[C@H](CSC1=CC=CC=C1)NC2=C(C=C(C=C2)S(=O)(=O)NC(=O)C3=CC=C(C=C3)N4CCC(CC4)[C@H](C5=CC=CC=C5C6=CC=C(C=C6)Cl)O)S(=O)(=O)C(F)(F)F)CCO [AZD4320]; details: max 1 µM
Procedure, shortened: as §1

Alisertib = compound: COc1cc(Nc2ncc3c(n2)-c2ccc(Cl)cc2C(c2c(F)cccc2OC)=NC3)ccc1C(=O)O [Alisertib]; details: max 10 µM
Procedure, shortened: as §1

Gefitinib = compound: COc1cc2ncnc(Nc3ccc(F)c(Cl)c3)c2cc1OCCCN1CCOCC1 [Gefitinib]; details: max 10 µM
Procedure, shortened: as §1

Prexasertib = compound: COc1cccc(OCCCN)c1-c1cc(Nc2cnc(C#N)cn2)n[nH]1 [Prexasertib]; details: max 1 µM
Procedure, shortened: as §1

Doxorubicin = compound: COc1cccc2c1C(=O)c1c(O)c3c(c(O)c1C2=O)C[C@@](O)(C(=O)CO)C[C@@H]3O[C@H]1C[C@H](N)[C@H](O)[C@H](C)O1 [Doxorubicin]; details: max 1 µM
Procedure, shortened: as §1

AZD5153 = compound: COc1nnc2ccc(N3CCC(c4ccc(OCCN5CCN(C)C(=O)[C@H]5C)cc4)CC3)nn12 [AZD5153]; details: max 1 µM
Procedure, shortened: as §1

Lapatinib = compound: CS(=O)(=O)CCNCc1ccc(-c2ccc3ncnc(Nc4ccc(OCc5cccc(F)c5)c(Cl)c4)c3c2)o1 [Lapatinib]; details: max 10 µM
Procedure, shortened: as §1

AZD8186 = compound: C[C@@H](Nc1cc(F)cc(F)c1)c1cc(C(=O)N(C)C)cc2c(=O)cc(N3CCOCC3)oc12 [AZD8186]; details: max 3 µM
Procedure, shortened: as §1

Crizotinib = compound: C[C@@H](Oc1cc(-c2cnn(C3CCNCC3)c2)cnc1N)c1c(Cl)ccc(F)c1Cl [Crizotinib]; details: max 10 µM
Procedure, shortened: as §1

Savolitinib = compound: C[C@@H](c1ccc2nccn2c1)n1nnc2ncc(-c3cnn(C)c3)nc21 [Savolitinib]; details: max 1 µM
Procedure, shortened: as §1

AZD6738 = compound: C[C@@H]1COCCN1C2=NC(=NC(=C2)C3(CC3)[S@](=N)(=O)C)C4=C5C=CNC5=NC=C4 [AZD6738]; details: max 10 µM
Procedure, shortened: as §1

AZD5991 = compound: Cc1c2c(nn1C)CSCc1cc(n(C)n1)CSc1cc(c3ccccc3c1)OCCCc1c(C(=O)O)n(C)c3c-2c(Cl)ccc13 [AZD5991]; details: max 1 µM
Procedure, shortened: as §1

AZD7648 = compound: Cc1cc2ncnn2cc1Nc1ncc2c(n1)n(C1CCOCC1)c(=O)n2C [AZD7648]; details: max 10 µM
Procedure, shortened: as §1

Taselisib = compound: Cc1nc(-c2cn3c(n2)-c2ccc(-c4cnn(C(C)(C)C(N)=O)c4)cc2OCC3)n(C(C)C)n1 [Taselisib]; details: max 10 µM
Procedure, shortened: as §1

Selumetinib = compound: Cn1cnc2c(F)c(Nc3ccc(Br)cc3Cl)c(C(=O)NOCCO)cc21 [Selumetinib]; details: max 10 µM
Procedure, shortened: as §1

MK-2206 = compound: NC1(c2ccc(-c3nc4ccn5c(=O)[nH]nc5c4cc3-c3ccccc3)cc2)CCC1 [MK-2206]; details: max 10 µM
Procedure, shortened: as §1

Olaparib = compound: O=C(c1cc(Cc2n[nH]c(=O)c3ccccc23)ccc1F)N1CCN(C(=O)C2CC2)CC1 [Olaparib]; details: max 10 µM
Procedure, shortened: as §1

Cell Line	IC50, cell viability 72 h (Capivasertib)	IC50, cell viability 72 h (AZD1775)	IC50, cell viability 72 h (Trametinib)	IC50, cell viability 72 h (Palbociclib)	IC50, cell viability 72 h (AZD1390)	IC50, cell viability 72 h (Venetoclax)	IC50, cell viability 72 h (Dasatinib)	IC50, cell viability 72 h (SG3199)	IC50, cell viability 72 h (AZD2811)	IC50, cell viability 72 h (SN-38)	IC50, cell viability 72 h (AZD0156)	IC50, cell viability 72 h (AZD4320)	IC50, cell viability 72 h (Alisertib)	IC50, cell viability 72 h (Gefitinib)	IC50, cell viability 72 h (Prexasertib)	IC50, cell viability 72 h (Doxorubicin)	IC50, cell viability 72 h (AZD5153)	IC50, cell viability 72 h (Lapatinib)	IC50, cell viability 72 h (AZD8186)	IC50, cell viability 72 h (Crizotinib)	IC50, cell viability 72 h (Savolitinib)	IC50, cell viability 72 h (AZD6738)	IC50, cell viability 72 h (AZD5991)	IC50, cell viability 72 h (AZD7648)	IC50, cell viability 72 h (Taselisib)	IC50, cell viability 72 h (Selumetinib)	IC50, cell viability 72 h (MK-2206)	IC50, cell viability 72 h (Olaparib)
HCC1937 (Breast Carcinoma)	> 10000 nM	643 nM	> 1000 nM	> 10000 nM	> 300 nM	> 1000 nM	> 2000 nM	> 1 nM	> 1000 nM	> 300 nM	> 3000 nM	> 1000 nM	> 10000 nM	> 10000 nM	318 nM	> 1000 nM	> 1000 nM	> 10000 nM	> 3000 nM	> 10000 nM	> 1000 nM	> 10000 nM	> 1000 nM	> 10000 nM	9150 nM	> 10000 nM	> 10000 nM	> 10000 nM
NCI-H1838 (Lung Adenocarcinoma)	> 10000 nM	2440 nM	> 1000 nM	> 10000 nM	> 300 nM	> 1000 nM	> 2000 nM	> 1 nM	> 1000 nM	> 300 nM	> 3000 nM	> 1000 nM	> 10000 nM	> 10000 nM	212 nM	> 1000 nM	> 1000 nM	> 10000 nM	> 3000 nM	> 10000 nM	> 1000 nM	> 10000 nM	> 1000 nM	> 10000 nM	5860 nM	> 10000 nM	> 10000 nM	> 10000 nM
NCI-H650 (Lung Adenocarcinoma)	> 10000 nM	2650 nM	> 1000 nM	> 10000 nM	> 300 nM	> 1000 nM	> 2000 nM	> 1 nM	> 1000 nM	100 nM	> 3000 nM	> 1000 nM	> 10000 nM	> 10000 nM	283 nM	> 1000 nM	> 1000 nM	> 10000 nM	> 3000 nM	> 10000 nM	> 1000 nM	> 10000 nM	> 1000 nM	> 10000 nM	> 10000 nM	> 10000 nM	> 10000 nM	> 10000 nM
